Results: paper PMC7356787, “Structure-Activity Relationships for the Anaesthetic and Analgaesic Properties of Aromatic Ring-Substituted Ketamine Esters” (Molecules, 2020)

Assays:
rats [1] = test: Anaesthetic assessment by continuous intravenous infusion in rats (loss and return of righting reflex); format: in vivo; conditions: rat; for minimal effective dose: iv, i.v. infusion starting at 20 mg/kg/min, measure of sedative potency, mean (SEM), read-out: Sedation LORR: minimal dose for loss of righting reflex (SEM)
Experimental: (§1) The compounds were evaluated for their ability to anaesthetise rats when administered by continuous intravenous infusion, as reported previously. Compounds were administered to initially deliver 20 mg/kg/min (weight-adjusted flow) to achieve a pedal withdrawal reflex score (PWR = 1), then titrated to maintain loss of righting reflex (LORR) for 10 min. Three rats were used in each study, with each group of rats also acting as their own ketamine control. Data were collected on the total dose of drug (mg/kg), to achieve LORR and a PWR = 1, and on the time (in seconds, from cessation of the infusion) to recovery of righting reflex (RORR) (recovery from the hypnotic anaesthesia effect). Given the complexity of the experimental protocol, the total dose for LORR (Table 1) is very consistent, with ranges of only 1.5-fold within each group. The consistency of the post-sedation recovery times are expectedly lower, with ranges of about 2.5-fold. During recovery the rats were monitored for multiple signs of behavioural dysfunction (see biology section for details) and the sum of these scores (from 0 to 4, with 0 being no effect and 4 being severe dysfunction) is given in Table 2. IC50 values for inhibition of the NMDA receptor were conducted by Eurofins PanLabs, Taiwan.
(§2) All animal experiments were conducted at the Ruakura Research Centre, Hamilton, New Zealand, using experimental protocols reviewed and approved by the Ruakura Animal Ethics Committee (ethics ref 12604/13786). Adult female Sprague-Dawley rats of approximately 250–350 g were evaluated in both anaesthetic and analgaesic study protocols. All study agents were delivered by tail vein cannula connected via minibore extension tubing to mechanised infusion pump.
(§3) Following acquisition of baseline physiologic parameters (heart rate, respiratory rate, PWR, and righting reflex (RR)) ketamine or an experimental compound at 10mg/mL were commenced at a rate (weight-adjusted) to deliver 20 mg/kg/min. Dose to loss of righting reflex (LORR see below), and subsequent pedal withdrawal score of 1 (PWR see below) were recorded. Following attaining a PWR of 1, infusion rate was reduced to 6.7 mg/kg/min, then titrated in an up-and-down fashion as required to maintain both dorsal recumbency, and a PWR = 1, to 10 min before cessation. Each study used three rats, with each group of rats also acting as their own ketamine control. Prior odds/evens randomisation determined the order of study drug administration was determined by with a recovery interval of at least three hours afforded between experiments. Records of PWR and RR were made at one-minute intervals throughout, from cessation of infusion to return of righting reflex (RORR), and from cessation of infusion to the animals displaying independent locomotion (walk).
Loss of Righting Reflex (LORR): This is primarily used to assess anaesthetic hypnotic effect. Righting reflex is judged absent when the rat fails to right from a position of dorsal recumbency to a position of sternal recumbency on three attempts performed in rapid succession. Dose to LORR is termed effective potency.

rats [2] = test: Pedal withdrawal reflex (PWR) scoring during intravenous infusion (analgaesic potency); format: in vivo; conditions: rat, i.v. infusion, dose to PWR = 1, mean (SEM), read-out: Analgaesia potency: minimal dose for loss of pedal withdrawal reflex (SEM)
Experimental: as §1, §2, §3
Pedal Withdrawal Reflex (PWR) scoring: Nociceptive testing in animals was conducted via 1 s application of constant pressure (firm digital pressure) over the forepaw of the animal. Pedal withdrawal reflex testing is primarily used to assess analgaesic effect, and responses are graded accordingly: 0, absent; 1, flicker; 2, moderate withdrawal; 3, fast withdrawal; 4, Fast withdrawal with cry/preceding apnoea (modified from).

rats [3] = test: Tail flick analgaesic assessment (composite tail flick latency, cTFL); format: in vivo; conditions: rat, 20 mg/kg i.v. infused over 10 min; AUC of %MPE-time curve 0-60 min; measure of analgaesic magnitude/duration
Experimental: Analgaesic assessment protocol: Animal preparation was in accord with the anaesthetic assessment protocol above. Three rats were used in each study. Following venous cannulation, animals underwent infusion of ketamine or experimental compound at 20 mg/kg over a ten minute interval. A tail flick analgaesia meter (Colombus Instruments, Colombus, Ohio) was then used to determine thermal pain sensitivity. Radiant heat was applied using a shutter-controlled lamp as a heat source focused on a spot located 6–8 cm from the tip of the tail. The intensity of the beam was set at a level producing basal latency times between 2 and 4 s. To prevent thermal tissue injury the cut off time as set at 10 s. A digital response time indicator with a resolution of 0.1s measured the time from initiation of stimulus until tail withdrawal (the flick; TFL).
The TFL response following infusion of control and study drugs was calculated as a percentage of the maximum possible effect (MPE) such that:%MPE = [TFL (post-drug) – TFL (pre-drug)/10 s – TFL (pre-drug)] × 100%(1)
TFL latency was recorded at 5 min intervals from cessation of study drug infusion (time zero) to 60 min. Individual %MPE-time curves were constructed for each animal, and the area under the curve (AUC) adopted as a composite measure of induced analgaesia (cTFL).

[4] = target: N-methyl-D-aspartate receptor; test: Inhibition of the NMDA receptor (Eurofins Panlabs Taiwan); format: binding; conditions: conducted by Eurofins Panlabs Taiwan
Experimental: as §1

rats [5] = test: Behavioural dysfunction scoring during recovery from infusion; format: in vivo; conditions: rat, during wake-up; sum score 0 (no effect) to 4 (severe dysfunction); mean (SEM)
Experimental: as §1
Behavioural dysfunction scoring: This was undertaken according to the following table. Observations were made over a one minute interval every five minutes from cessation of infusion until return of normal behaviours (total score = 0). A score of 1 was accorded for any positive behavioural aberration for each of four categories (maximal score 4) during wake-up.
Duration of any behavioural aberration was recorded from RORR as follows: score 0 = nil; score1 = 0–120 s; score 2 = 121–300 s; score 3 = 301–600 s; score 4 = 600+ s.

SMILES | minimal effective dose (rats [1]) | minimal effective dose (rats [2]) | Analgaesia cTFL (composite tail flick latency) (rats [3]) | IC50 [4] | Behavioural dysfunction Score (SEM): severity on recovery (rats [5]) | Seizure-inducing effect during infusion (rats [1]; i.v. infusion in anaesthetic assessment protocol)
COC(=O)CCCCNC1(c2cccc(C)c2)CCCCC1=O (stereo not drawn) [11b] | 39 mg/kg | 43 mg/kg | 104 s | 5.2 µM | 2 (1) | 
COC(=O)CCCCNC1(c2ccccc2C(F)(F)F)CCCCC1=O (stereo not drawn) [8b] | 154 mg/kg | 156 mg/kg | 1864 s | 128 µM | 1 (0) | 
CC(C)OC(=O)CCNC1(c2ccc(C(F)(F)F)cc2)CCCCC1=O (stereo not drawn) [18a] | > 200 mg/kg | > 200 mg/kg | 412 s | 438 µM | 0 (0) | 
CC(C)OC(=O)CCNC1(c2ccc(Cl)cc2)CCCCC1=O (stereo not drawn) [15a] | 99 mg/kg | > 200 mg/kg | 491 s | 129 µM | 2 (1) | 
Cc1ccccc1C1(NCCC(=O)OC(C)C)CCCCC1=O (stereo not drawn) [6a] | > 200 mg/kg | > 200 mg/kg | 393 s | 428 µM | 0 (0) | 
Cc1ccc(C2(NCCC(=O)OC(C)C)CCCCC2=O)cc1 (stereo not drawn) [16a] | 47 mg/kg | 52 mg/kg | 650 s | 161 µM | 1 (0) | 
CC(C)OC(=O)CCNC1(c2ccccc2C(F)(F)F)CCCCC1=O (stereo not drawn) [8a] | 64 mg/kg | 64 mg/kg | 652 s | 290 µM | 2 (1) | 
COc1ccc(C2(NCCC(=O)OC(C)C)CCCCC2=O)cc1 (stereo not drawn) [17a] | > 200 mg/kg | > 200 mg/kg | 167 s | 396 µM | 0 (0) | 
COc1cccc(C2(NCCC(=O)OC(C)C)CCCCC2=O)c1 (stereo not drawn) [12a] | 79 mg/kg | 83 mg/kg | 284 s | 201 µM | 2 (0) | 
COC(=O)CCCCNC1(c2ccccc2)CCCCC1=O (stereo not drawn) [3b] | 40 mg/kg | 45 mg/kg | 0 s | 9.9 µM | 1 (0) | 
COC(=O)CCCCNC1(c2cccs2)CCCCC1=O (stereo not drawn) [20b] | 52 mg/kg | 74 mg/kg | 196 s | 8.9 µM |  | 
CC(C)OC(=O)CCNC1(c2ccccc2OC(F)(F)F)CCCCC1=O (stereo not drawn) [9a] | 62 mg/kg | 62 mg/kg | 80 s | 184 µM | 1 (0) | 
COC(=O)CCCCNC1(c2ccccc2OC(F)(F)F)CCCCC1=O (stereo not drawn) [9b] | > 200 mg/kg | > 200 mg/kg | 119 s | 121 µM | 3 (1) | 
CC(C)OC(=O)CCNC1(c2ccccc2)CCCCC1=O (stereo not drawn) [3a] | > 200 mg/kg | > 200 mg/kg | 0 s | > 1000 µM | 0.5 (0.7) | 
COC(=O)CCCCNC1(c2ccc(C)cc2)CCCCC1=O (stereo not drawn) [16b] | 50 mg/kg | 55 mg/kg | 0 s | 23 µM | 1 (0) | 
COC(=O)CCCCNC1(c2ccc(OC)cc2)CCCCC1=O (stereo not drawn) [17b] |  |  | 551 s | 94.1 µM | 3 (0) | seizure-inducing effect
